# Assay results from patent publication US11274332B2, “Methods of administering 3,4-diaminopyridine” (SERB SA, priority 2011, dated 2022).
# Legend:
# dog hepatocytes = test: In vitro metabolism of 14C-amifampridine in dog hepatocytes (Example 2); format: in vitro ADME
# Description: (§1) The objective of this hepatocyte study was to determine the extent of metabolism, complete metabolic profile and metabolite characterization of amifampridine phosphate in several species with ^14C-amifampridine phosphate for a cross species comparison. The following procedures were used to study the metabolism in rat (Example 1), dog (Example 2), and human hepatocytes (Example 3).
# (§2) The cryopreserved hepatocytes were removed from storage, quickly thawed in a 37° C. water bath for 1 to 2 min, and transferred to a 50 ml tube containing pre-warmed InVitroGRO HT medium (Celsis Inc., Baltimore). The cell suspension was mixed by gentle inversion and the cells were pelleted by centrifugation at 50 to 75×g for 5 min. The supernatant medium was removed and the cells were resuspended in Williams' Medium E. Hepatocyte viability was assessed by using trypan blue exclusion. Hepatocyte density was determined by counting cells with a hemocytometer and the density was adjusted with Williams' Medium E to achieve a final density of 1,000,000 cells/mL. […] The supernatant medium was removed and the cells were resuspended in cold Williams' Medium E. The cell density was then determined using a hemocytometer and the density was adjusted with Williams' Medium E to achieve a final density of 1,000,000 cells/mL. […]
# human hepatocytes = test: In vitro metabolism of 14C-amifampridine in human hepatocytes (Example 3); format: in vitro ADME; settings: multiple donors
# Description: as §1, §2
smiles,measurement,setting,value
"Nc1ccncc1N [3,4-DAP, 3,4-diaminopyridine]","conversion of 3,4-DAP to its metabolite",dog hepatocytes,No conversion
same,formation of single major acetylated amifampridine metabolite,human hepatocytes,variable
